One assay deals with 786-O-Hif-Luc cells. Put plainly: Luciferase Assay (HIF responsive elements reporter). The note with it: read-out: Mean Luciferase EC50 (nM), 786-O-Hif-Luc cells.
Assay [1] addresses T1, HIF-2α HIS TAG-PASB Domain (Homo sapiens, UniProt Q99814).
T1 construct: 100 nM HIF-2α HIS TAG-PASB Domain
Put plainly: HIF-2α Scintillation Proximity Assay (SPA). The class given is binding. Summed up:
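IC50 values rest on percent inhibition, where the sample signal is scaled between high and low controls. Wells contain about 100 μL: compound dispensed as 2 μL of DMSO solution, 88 μL protein-probe mix and 10 μL of beads.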

In the next assay the test system is 786-O cells. Put plainly: VEGF ELISA Assay. The class given is cell-based. The note with it: Homo sapiens, 786-0. Here is the method: Each concentration was plated in duplicate. About 20 hours later, medium was removed by suction and each well was supplied with 180 μL of growth medium. About 20 μl freshly-made 10× compound stocks were added to each well. […] The EC50 was calculated by GraphPad Prism using the dose-response-inhibition (four parameter) equation. The cell-seeded plate was then subjected to CellTiter-Glo luminescence cell viability assay (Promega) by adding 50 μL of Celltiter Glo reagent into each well and shaking the plate for 8 minutes at 550 rpm (Thermomixer R, Eppendorf) then the luminescence signal immediately read in a plate reader (3 second delay, 0.5 second/well integration time, Synergy 2 multi Detection Microplate reader).

The mark [2] stands for this setting: read-out: Scintillation Proximity Assay IC50.

Where two headings read alike, the source gives them in different places.

T1 sequence (Q99814 240-350 limits assumed): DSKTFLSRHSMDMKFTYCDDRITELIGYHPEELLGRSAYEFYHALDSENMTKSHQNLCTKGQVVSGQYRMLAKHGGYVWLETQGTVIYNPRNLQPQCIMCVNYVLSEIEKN
Protocol for 786-O-Hif-Luc cells: A pool of infected cells were then selected against 2 μg/mL of puromycin (P8833, Sigma) for 10 days followed by limited dilution to select single clones. […] Each concentration was tested in triplicate. After about 24 hours, luciferase activity was determined using ONE-Glo Luciferase Assay Reagent (E6110, Promega) following the manufacturer's recommended procedure. EC50 were calculated using Dotmatics software.

As to `O=S(=O)(CF)c1ccc(O[C@H]2C[C@H](F)C2)c2c1[C@H](O)[C@H](F)[C@@H]2F` [Compound 743], the EC50 is less than 50 nM in the assay with 786-O-Hif-Luc cells and 50 to 249 nM with 786-O cells. Also, the IC50 in assay [1] (setting [2]) was less than 50 nM.
With `CS(=O)(=O)c1ccc(Oc2cc(F)cc(Br)c2)c2c1[C@H](O)C(F)(F)C2` [Compound 304], the EC50 is less than 50 nM with 786-O-Hif-Luc cells and 50 to 249 nM with 786-O cells. Besides, in assay [1] (setting [2]), the IC50 was less than 50 nM.
For `CS(=O)(=O)c1ccc(Oc2cncc(C#N)c2)c2c1[C@H](O)C(F)(F)C2` [Compound 325], the EC50 with 786-O-Hif-Luc cells lay within 250 to 1000 nM; in the assay with 786-O cells it was 50 to 249 nM. Besides, the IC50 in assay [1] (setting [2]) lay in the range of 50 to 249 nM.
For the molecule `CS(=O)(=O)c1ccc(Oc2cncc(C#N)c2)c2c1[C@H](O)C(F)(F)[C@@H]2F` [Compound 342], the EC50 with 786-O-Hif-Luc cells and in the assay on 786-O cells was 50 to 249 nM throughout. The IC50 in assay [1] (setting [2]) is less than 50 nM.
On to `CC(C)Oc1ccc(S(=O)(=O)C(F)(F)F)c2c1CC(F)(F)[C@H]2O` [Compound 654], for which the EC50 in the assay with 786-O-Hif-Luc cells and in the assay on 786-O cells was less than 50 nM each time. The IC50 in assay [1] (setting [2]) was less than 50 nM.
On to `N#Cc1cc(F)cc(Oc2ccc(S(=O)(=O)CF)c3c2CC(F)(F)[C@H]3O)c1` [Compound 63], for which the EC50 with 786-O-Hif-Luc cells and with 786-O cells was less than 50 nM in each case. Moreover, the IC50 in assay [1] (Scintillation Proximity Assay IC50 (nM)) was less than 50 nM.
As for `O=S(=O)(CF)c1ccc(Oc2cc(F)c(F)c(F)c2)c2c1[C@H](O)C(F)(F)C2` [Compound 188], the EC50 in the assay on 786-O-Hif-Luc cells and in the assay with 786-O cells was 50 to 249 nM in each case. Besides, the IC50 in assay [1] (setting [2]) was less than 50 nM.
With `N#Cc1cc(F)cc(Oc2ccc(S(=O)(=O)C(F)F)c(CO)c2Br)c1` [Compound 80], the EC50 in the assay with 786-O-Hif-Luc cells and with 786-O cells was 250 to 1000 nM in each case. Also, the half-inhibitory concentration (IC50) in assay [1] (setting [2]) was less than 50 nM.
As for `N#Cc1cc(F)cc(Oc2ccc3c(c2Cl)[C@@H](O)C(F)(F)S3(=O)=O)c1` [Compound 431], the EC50 in the assay with 786-O-Hif-Luc cells is less than 50 nM; with 786-O cells it was 50 to 249 nM. Besides, in assay [1] (setting [2]), the IC50 was less than 50 nM.
In the case of `N=S1(=O)c2ccc(Oc3cc(F)cc(F)c3)c(C(F)F)c2C(O)C1(F)F` (stereo not drawn) [Compound 398], the EC50 in the assay with 786-O-Hif-Luc cells and in the assay with 786-O cells was 50 to 249 nM throughout. For the same molecule, in assay [1] (setting [2]), the IC50 was less than 50 nM.
Regarding `N#Cc1cccc(Oc2ccc(S(=O)(=O)C(F)F)c3c2CC(F)(F)[C@H]3O)c1` [Compound 236], the EC50 in the assay with 786-O-Hif-Luc cells and in the assay on 786-O cells was less than 50 nM each time. Also, the IC50 in assay [1] (setting [2]) is less than 50 nM.
Take `CS(=O)(=O)c1ccc(Oc2cc(F)cc(C#N)c2)c2c1[C@H](O)C(F)(F)[C@@H]2F` [Compound 292, 3-fluoro-5-[(1S,3R)-2,2,3-trifluoro-1-hydroxy-7-methylsulfonyl-indan-4-yl]oxy-benzonitrile]: the EC50 with 786-O-Hif-Luc cells and with 786-O cells was less than 50 nM in each case. For the same molecule, the IC50 in assay [1] (setting [2]) was less than 50 nM.
For the molecule `O=S(=O)(CF)c1ccc(Oc2cc(F)cc(F)c2)c2c1[C@H](O)C(F)(F)C2` [Compound 64], the EC50 in the assay on 786-O-Hif-Luc cells and in the assay with 786-O cells was less than 50 nM in each case. Also, the IC50 in assay [1] (setting [2]) was less than 50 nM.
Regarding `O=S(=O)(c1ccc(OC2CCC2)c2c1[C@H](O)C(F)(F)C2)C(F)(F)F` [Compound 657], the EC50 in the assay on 786-O-Hif-Luc cells and in the assay with 786-O cells was less than 50 nM each time. The IC50 in assay [1] (setting [2]) is less than 50 nM.
As to `CS(=O)(=NC#N)c1ccc(Oc2cc(F)cc(C#N)c2)c2c1[C@H](O)C(F)(F)[C@@H]2F` (stereo partly drawn) [Compound 316], the EC50 in the assay with 786-O-Hif-Luc cells and with 786-O cells was less than 50 nM in each case. Besides, the IC50 in assay [1] (setting [2]) is less than 50 nM.
In the case of `N#Cc1cc(Oc2ccc(S(=O)(=O)C(F)(F)F)c3c2CC(F)(F)[C@H]3O)c[n+]([O-])c1` [Compound 267], the EC50 with 786-O-Hif-Luc cells fell in the range of 50 to 249 nM; with 786-O cells, 250 to 1000 nM. Also, the IC50 in assay [1] (setting [2]) is 50 to 249 nM.
For `O=S(=O)(c1ccc(Oc2cc(F)cc(F)c2)c2c1C(O)C(F)(F)C2)C(F)F` (stereo not drawn) [Compound 9], the EC50 in the assay on 786-O-Hif-Luc cells and with 786-O cells was less than 50 nM in each case. In assay [1] (setting [2]), the half-inhibitory concentration (IC50) is less than 50 nM.
In the case of `CS(=O)(=O)c1ccc(OC2CC(F)(F)C2)c2c1[C@H](O)C(F)(F)C2` [Compound 734], the EC50 was 50 to 249 nM in the assay with 786-O-Hif-Luc cells and 250 to 1000 nM with 786-O cells. Further, the IC50 in assay [1] (setting [2]) was 50 to 249 nM.

(Values after patent US10278942B2 (PELOTON THERAPEUTICS, INC., priority 2015, dated 2019).)
